This is an account of results in ChEMBL document CHEMBL4334512, “Rationally Designed, Conformationally Constrained Inverse Agonists of RORγt-Identification of a Potent, Selective Series with Biologic-Like in Vivo Efficacy” (J Med Chem, 2019).

By AUC is commonly meant concentration integrated over time. In general, fraction unbound refers to the share of the substance not bound to proteins or other matrix. The term bioavailability denotes dose-corrected exposure relative to a reference, in per cent. The EC50 is the concentration that produces a half-maximal response. For orientation: inhibition in vivo means the relative decrease from the control value, in per cent. Higher therefore signals strong suppression. As a reminder, the IC50 is the concentration at which inhibition is half-maximal. By clearance is commonly meant a measure of how efficiently the substance is removed, as volume per time. A high value points to a high capacity for elimination. A word on the half-life: it is how long it takes for the measured level to halve. Lower therefore signals rapid decline.

The nature of series [1]: Total AUC in rat at 4 mg/kg, po. The format is ADME, organism-based. The note with it: in vivo. Also on record: dose 4 mg/kg, route oral, time AUCmax.
Series [2] in a line: Unbound fraction in mouse serum. The format is ADME, cell-free.
Series [3] can be described thus: Oral bioavailability in mouse at 4 mg/kg. The format is ADME, organism-based. The note with it: in vivo.
The nature of series [4]: Unbound fraction in human serum. The format is ADME, cell-free.
The target of series [5] is T1, Nuclear receptor ROR-gamma (Mus musculus, UniProt P51450).
T1 sequence (P51450 whole entry): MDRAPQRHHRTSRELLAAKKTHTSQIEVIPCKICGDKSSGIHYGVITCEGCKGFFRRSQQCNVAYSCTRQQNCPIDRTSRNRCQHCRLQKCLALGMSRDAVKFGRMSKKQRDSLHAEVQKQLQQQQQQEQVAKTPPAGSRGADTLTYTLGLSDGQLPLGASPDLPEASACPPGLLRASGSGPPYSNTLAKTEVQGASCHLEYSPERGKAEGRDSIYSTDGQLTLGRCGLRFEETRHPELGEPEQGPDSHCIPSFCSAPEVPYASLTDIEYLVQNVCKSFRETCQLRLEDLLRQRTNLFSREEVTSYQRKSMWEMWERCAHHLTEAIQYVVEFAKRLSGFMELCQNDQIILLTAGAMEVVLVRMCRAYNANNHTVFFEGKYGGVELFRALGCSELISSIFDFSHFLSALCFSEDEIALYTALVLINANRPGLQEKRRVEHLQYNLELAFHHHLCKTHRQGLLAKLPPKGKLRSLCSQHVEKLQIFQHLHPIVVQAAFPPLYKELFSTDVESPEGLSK
As to the kind of experiment: Inverse agonist activity at RORgammat in CD3/CD28/IL-1/IL-23-stimulated C57/B6 mouse whole blood assessed as reduction in IL17A production incubated for 1 hr before stimulation with CD3/CD28/IL-1/IL-23 for 24 hrs by AlphaLISA method. The format is tissue-based. In general terms: Bead proximity is the source of the signal in Alpha formats.

The nature of series [6]: Permeability across apical to basolateral side in human Caco2 cells. The format is ADME, cell-based. The note with it: Caco-2, read-out: permeability.
The subject of series [7] is Mus musculus. As to the kind of experiment: Suppression of IL-17F RNA expression in skin region of mouse model of IL-23 induced acanthosis model of psoriasis at 10 mg/kg, po BID for 10 days measured every other day relative to control. The format is functional. The note with it: 240 h.
Series [8] concerns Mus musculus. As to the kind of experiment: Suppression of ear thickness in mouse model of IL-23 induced acanthosis model of psoriasis at 10 mg/kg, po BID for 10 days measured every other day relative to control. The format is functional. The note with it: 240 h.
Series [9] addresses T2, Nuclear receptor ROR-alpha (Homo sapiens, UniProt P35398).
T2 sequence (P35398 whole entry): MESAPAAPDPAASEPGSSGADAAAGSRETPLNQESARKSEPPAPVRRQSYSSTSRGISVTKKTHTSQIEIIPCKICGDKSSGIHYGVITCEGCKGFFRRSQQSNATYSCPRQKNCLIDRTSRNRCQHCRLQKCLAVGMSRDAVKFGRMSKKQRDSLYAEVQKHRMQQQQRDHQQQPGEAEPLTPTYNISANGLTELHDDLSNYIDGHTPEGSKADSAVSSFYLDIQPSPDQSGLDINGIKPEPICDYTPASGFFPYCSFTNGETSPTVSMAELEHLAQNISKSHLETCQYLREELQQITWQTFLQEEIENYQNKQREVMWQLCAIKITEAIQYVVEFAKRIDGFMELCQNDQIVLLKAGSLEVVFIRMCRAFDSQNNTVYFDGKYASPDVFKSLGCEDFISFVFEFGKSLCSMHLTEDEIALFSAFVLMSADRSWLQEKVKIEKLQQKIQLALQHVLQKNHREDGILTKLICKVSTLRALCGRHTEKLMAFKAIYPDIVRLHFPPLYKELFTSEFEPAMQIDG
The series is described as follows: Activity at RORalpha (unknown origin).

In series [10] the test system is Mus musculus. As to the kind of experiment: Suppression of IL-22 RNA expression in skin region of mouse model of IL-23 induced acanthosis model of psoriasis at 3 mg/kg, po BID for 10 days measured every other day relative to control. The format is functional. The note with it: 240 h.
The nature of series [11]: Clearance in dog at 1 mg/kg, iv. The note with it: in vivo. The format is ADME, organism-based, Canis lupus familiaris.
Series [12] concerns the target Cytochrome P450 2C9 (Homo sapiens, UniProt P11712). The series is described as follows: Inhibition of recombinant CYP2C9 (unknown origin). The format is ADME.
In series [13] the target is T3, Nuclear receptor subfamily 1 group I member 2 (Homo sapiens, UniProt O75469).
T3 sequence (O75469 whole entry): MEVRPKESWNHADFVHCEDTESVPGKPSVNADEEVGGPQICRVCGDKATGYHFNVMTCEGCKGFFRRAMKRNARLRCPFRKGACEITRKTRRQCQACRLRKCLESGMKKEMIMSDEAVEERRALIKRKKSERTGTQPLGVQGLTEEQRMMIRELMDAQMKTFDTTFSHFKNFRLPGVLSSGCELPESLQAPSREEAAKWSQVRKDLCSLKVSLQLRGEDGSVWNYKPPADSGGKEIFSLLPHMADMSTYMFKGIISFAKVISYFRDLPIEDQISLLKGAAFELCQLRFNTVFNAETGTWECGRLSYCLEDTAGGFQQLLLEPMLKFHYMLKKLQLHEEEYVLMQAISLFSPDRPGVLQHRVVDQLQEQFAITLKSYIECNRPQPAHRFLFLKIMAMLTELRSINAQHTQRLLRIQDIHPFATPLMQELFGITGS
The series is described as follows: Activity at PXR (unknown origin).

Series [14] concerns the target Cytochrome P450 3A4 (Homo sapiens, UniProt P08684). The series is described as follows: Inhibition of recombinant CYP3A4 (unknown origin) using BFC substrate. The format is ADME.
In series [15] the test system is Mus musculus. As to the kind of experiment: Suppression of ear thickness in mouse model of IL-23 induced acanthosis model of psoriasis at 30 mg/kg, po BID for 10 days measured every other day relative to control. The format is functional. The note with it: 240 h.
Series [16] can be described thus: Total AUC in dog at 1 mg/kg, po. The format is ADME, organism-based, Canis lupus familiaris. Set-up: dose 1 mg/kg, route oral, time AUCmax. The note with it: in vivo.
The target in series [17] is T4, Nuclear receptor ROR-beta (Homo sapiens, UniProt Q92753).
T4 sequence (Q92753 whole entry): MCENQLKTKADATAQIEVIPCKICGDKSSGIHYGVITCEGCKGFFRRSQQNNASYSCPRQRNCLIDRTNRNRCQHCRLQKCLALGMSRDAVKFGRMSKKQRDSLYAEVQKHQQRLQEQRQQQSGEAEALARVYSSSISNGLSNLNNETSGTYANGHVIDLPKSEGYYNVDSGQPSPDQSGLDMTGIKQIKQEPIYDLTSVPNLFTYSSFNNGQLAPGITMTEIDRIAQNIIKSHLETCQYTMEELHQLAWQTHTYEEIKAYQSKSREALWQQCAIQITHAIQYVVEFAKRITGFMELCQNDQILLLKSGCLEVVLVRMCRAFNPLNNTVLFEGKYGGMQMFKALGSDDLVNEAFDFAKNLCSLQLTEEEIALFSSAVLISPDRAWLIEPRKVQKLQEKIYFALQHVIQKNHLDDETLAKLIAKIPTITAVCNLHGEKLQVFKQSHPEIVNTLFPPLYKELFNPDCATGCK
As to the kind of experiment: Agonist activity at RORbeta (unknown origin) by Gal4-Luc reporter gene assay. A general note: In a reporter assay the amount or activity of a reporter protein is the signal.

Series [18] in a line: Half life in dog at 1 mg/kg, iv. The format is ADME, organism-based, Canis lupus familiaris. The note with it: in vivo.
The target in series [19] is T4, Nuclear receptor ROR-beta. As to the kind of experiment: Activity at RORbeta (unknown origin).
The nature of series [20]: Oral bioavailability in rat at 4 mg/kg. The format is ADME, organism-based. The note with it: in vivo.
Series [21] in a line: Clearance in rat at 2 mg/kg, iv. The note with it: in vivo. The format is ADME, organism-based.

Sequence of Cytochrome P450 2C9 (P11712 whole entry): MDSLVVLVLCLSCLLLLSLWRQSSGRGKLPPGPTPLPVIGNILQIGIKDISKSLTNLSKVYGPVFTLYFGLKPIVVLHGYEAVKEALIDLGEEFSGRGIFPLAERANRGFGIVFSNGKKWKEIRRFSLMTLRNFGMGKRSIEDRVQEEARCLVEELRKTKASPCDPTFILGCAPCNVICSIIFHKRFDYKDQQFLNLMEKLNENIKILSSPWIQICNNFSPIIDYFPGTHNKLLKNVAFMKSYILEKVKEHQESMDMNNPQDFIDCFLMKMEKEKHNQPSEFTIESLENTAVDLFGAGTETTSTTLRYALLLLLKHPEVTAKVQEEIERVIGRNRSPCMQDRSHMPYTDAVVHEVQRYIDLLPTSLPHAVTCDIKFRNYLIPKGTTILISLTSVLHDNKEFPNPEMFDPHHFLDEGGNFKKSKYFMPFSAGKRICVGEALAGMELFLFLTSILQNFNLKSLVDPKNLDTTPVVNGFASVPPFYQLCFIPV
Sequence of Cytochrome P450 3A4 (P08684 whole entry): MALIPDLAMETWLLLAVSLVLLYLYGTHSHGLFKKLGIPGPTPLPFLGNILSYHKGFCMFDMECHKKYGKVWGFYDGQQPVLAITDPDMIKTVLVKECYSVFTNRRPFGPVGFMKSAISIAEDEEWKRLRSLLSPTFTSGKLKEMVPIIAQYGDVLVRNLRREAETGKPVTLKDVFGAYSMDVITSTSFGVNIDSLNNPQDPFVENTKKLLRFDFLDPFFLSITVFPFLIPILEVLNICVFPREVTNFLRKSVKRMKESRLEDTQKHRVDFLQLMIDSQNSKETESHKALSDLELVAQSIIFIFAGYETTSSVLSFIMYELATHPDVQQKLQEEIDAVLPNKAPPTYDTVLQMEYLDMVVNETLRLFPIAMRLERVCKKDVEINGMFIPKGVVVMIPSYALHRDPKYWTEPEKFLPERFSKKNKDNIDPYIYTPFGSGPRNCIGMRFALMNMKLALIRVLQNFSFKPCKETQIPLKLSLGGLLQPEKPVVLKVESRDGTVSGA

With `O=C(N1CC[C@@]2(S(=O)(=O)c3ccc(F)cc3)c3ccc(C(F)(C(F)(F)F)C(F)(F)F)cc3CC[C@@H]12)C1(O)CCS(=O)(=O)CC1`, the results for the AUC in series [1] and in series [16] were 17 µM·h and 78 µM·h, respectively. Further, the fraction unbound in series [2] came out at 0.007; in [4], 0.011. For the same compound, the values for the bioavailability in [3] and in series [20] were 100% and 50%, respectively. In addition, the results for the concentration for a half-maximal effect (EC50) in series [5] and in [17] were 0.44 µM and over 10 µM, respectively. In addition, the Papp A→B in series [6] turned out to be 13 ×10⁻⁶ cm/s. Moreover, the inhibition in vivo at 10 mg/kg in [7] worked out at 69%; in series [8] it was 51%. The IC50 was over 10 µM in [9]; 10 µM in series [12]; over 40 µM in series [13]; over 20 µM in [14]; over 10 µM in series [19]. In series [10], this compound yielded an inhibition in vivo at 3 mg/kg of 76%. The clearance in [11] is 0.35 mL/min/kg; in series [21], 3.7 mL/min/kg. In [15], this compound displayed an inhibition in vivo at 30 mg/kg of 57%. Moreover, the half-life in series [18] was 87 h.
